Structures can show the parent of a compound that is named as a salt.
The compounds below were run against T1, Bradykinin receptor (Cavia porcellus, UniProt O70526) (assay: 3H-Bradykinin receptor binding (guinea pig ileum crude membrane)). Conditions: concentration: 1 × 10^-6 M, 3H-Bradykinin 0.06 nM, room temperature, 60 minutes.
T1 construct: The ileum was removed and homogenized in buffer; from tissue; host or cells: guinea pig ileum, crude membrane suspension
T1 sequence (O70526 1-372): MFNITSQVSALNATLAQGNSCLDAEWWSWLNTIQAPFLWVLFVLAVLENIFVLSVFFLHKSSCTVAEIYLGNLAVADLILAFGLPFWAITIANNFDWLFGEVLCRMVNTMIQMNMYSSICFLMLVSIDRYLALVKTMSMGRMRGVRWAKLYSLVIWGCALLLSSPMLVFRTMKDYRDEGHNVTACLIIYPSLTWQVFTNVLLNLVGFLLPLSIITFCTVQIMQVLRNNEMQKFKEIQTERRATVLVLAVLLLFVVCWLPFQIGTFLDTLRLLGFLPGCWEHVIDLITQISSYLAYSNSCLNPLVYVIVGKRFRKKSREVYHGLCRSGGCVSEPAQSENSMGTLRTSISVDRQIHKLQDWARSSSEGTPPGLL
Procedure: ^3 H-Bradykinin receptor binding
(a) Crude ileum membrane preparation
Male Hartly strain guinea pigs were sacrificed by decapitation. The ileum was removed and homogenized in buffer (50 mM trimethylaminoethanesulfonic acid (TES), 1 mM 1,10-phenanthroline pH 6.8). The homogenate was centrifuged (1000×g, 20 minutes) to remove tissue clumps and the supernatant was centrifuges (100,000×g, 60 minutes) to yield a pellet. The pellet was resuspended in buffer (50 mm TES, 1 mM 1,10-phenanthroline, 140 mg/l bacitracin, 1 mM dithiothreiol, 0.1% bovine serum albumin pH 6.8) and homogenized with a glass-teflon homogenizer to yield suspension which was referred to as crude membrane suspension. The obtained membrane suspension was stored at -80° C. until use.
(b) ^3 H-Bradykinin binding to the membrane
The frozen crude membrane suspension was thawed. In binding assays, ^3 H-Bradykinin (0.06 nM) and drug (1×10^-6 M) were incubated with 50 μl of the membrane suspension at room temperature for 60 minutes in a final volume of 250 μl. Separation of receptor-bound from free ^3 H-Bradykinin is achieved by immediate filtration under vacuum and washed three times with 5 ml of ice-cold buffer (50 mM Tris-HCl pH 7.5). Non-specific binding was defined as binding in the presence of 0.1 μM Bradykinin. The radioactivity retained on rinsed filters was determined by a liquid-scintillation counter.

| SMILES | inhibition at 1 µM |
| --- | --- |
| Cc1ccc2cccc(OCc3c(Cl)ccc(N(C)C(=O)CNC(=O)Nc4cccc(C(=O)N(C)c5cccnc5)c4)c3Cl)c2n1 [34-(7), 8-[2,6-Dichloro-3-[N-methyl-N-[N'-[3-[N-methyl-N-(3-pyridyl)carbamoyl]phenyl]ureidoacetyl]amino]benzyloxy]-2-methylquinoline] | 100% |
| CCC(=O)Nc1cccc(NC(=O)NCC(=O)N(C)c2ccc(Cl)c(COc3cccc4ccc(C)nc34)c2Cl)c1 [57 (hydrochloride), 8-[2,6-Dichloro-3-[N-methyl-N-[N'-(3-propionamidophenyl)ureidoacetyl]amino]benzyloxy]-2-methylquinoline] | 99% |
| Cc1ccc2cccc(OCc3c(Cl)ccc(N(C)C(=O)CNC(=O)Nc4cccc(N)c4)c3Cl)c2n1 [41-(12), 8-[3-[N-[N'-(3-Aminophenyl)ureidoacetyl]-N-methylaminol-2,6-dichlorobenzyloxy]-2-methylquinolinedihydrochloride] | 95% |
| CCc1cc(Cl)c2cccc(OCc3c(Cl)ccc(N(C)C(=O)CNC(=O)Nc4cccc(C(C)=O)c4)c3Cl)c2n1 [29-(36), 8-[3-[N-[N'-(3-Acetylphenyl)ureidoacetyl]-N-methylamino]-2,6-dichlorobenzyloxy]-4-chloro-2-ethylquinoline hydrochloride] | 98% |
| Cc1ccc2cccc(OCc3c(Cl)ccc(N(C)C(=O)CNC(=O)/C=C/c4ccc(NC(=O)c5ccccn5)cc4)c3Cl)c2n1 [58-(11) (dihydrochloride), 8-[2,6-Dichloro-3-[N-methyl-N-[4-(2-pyridine-carboxamido)cinnamoylglycyl]amino]benzyloxy]-2-methylquinoline] | 99% |
| CCNC(=O)NCC(=O)N(C)c1ccc(Cl)c(COc2cccc3c(OC)cc(C)nc23)c1Cl [41-(64), 8-[2,6-Dichloro-3-[N-(N'-ethylureidoacetyl)-N-methylamino]benzyloxy]-4-methoxy-2-methylquinoline hydrochloride] | 95% |
| Cc1ccc2cccc(OCc3c(Cl)ccc(N(C)C(=O)CNC(=O)/C=C/c4ccc(N)cc4)c3Cl)c2n1 [35-(3), 8-[3-[N-(4-Aminocinnamoylglycyl)-N-methylamino]-2,6-dichlorobenzyloxy]-2-methylquinoline] | 99% |
| Cc1ccc2cccc(OCc3c(Cl)ccc(N(C)C(=O)CNC(=O)/C=C/c4ccc(OCCN(C)C)cc4)c3Cl)c2n1 [41-(53), 8-[2,6-Dichloro-3-[N-[4-[2-(N,N-dimethylamino)ethoxy]cinnamoylglycyl)-N-methylamino]benzloxy]-2-methylquinoline dihydrochloride] | 99% |

From US5922711A, “8-substituted quinazolines, quinoxalines and benzopyridazines” (Fujisawa Pharmaceutical Co., Ltd., priority 1993, dated 1999)
